row,Structure (SMILES),melting point
1,COC(=O)c1ccc(O)c(C(=O)CC(=O)c2ccccc2OC(C)C)c1,105 to 107 °C
2,COc1cc(CCC(=O)C2=C(Cl)CCC2)cc(OC)c1OC,93 °C
3,COc1cccc(/C=C/C2=CCN(Cc3c[nH]c4ncccc34)CC2)c1,186 to 188 °C
4,CCCc1nc2c(N)nc3ccccc3c2n1CC(C)(C)C(=O)N1CCOCC1,212 to 214 °C
5,C=CCONC(CCC)=C1C(=O)CC(C2CCOCC2)CC1=O (stereo unspecified),55 to 56 °C
6,CC1(C)Oc2ccc(C#N)cc2C(Nc2ccc(=O)[nH]c2)C1O (stereo unspecified),285 to 287 °C
7,COC(=O)c1nc(Cl)c(F)c(N)c1/C=C/Cl,128 to 130 °C
8,CCOP(=O)(CN1CCC(N(C)S(=O)(=O)c2ccc(Nc3nccc(Nc4ccc(F)c(F)c4)n3)cc2)CC1)OCC,138 °C
9,O=c1[nH]nc(-c2ccc(N3CCCCCC3)c([N+](=O)[O-])c2)c2ccccc12,187 to 189 °C
10,CC(C)Oc1ccc(CO)c(Oc2ncc(C(F)(F)F)cc2Cl)c1,63 to 64 °C
11,CCCCCCCCCCCCCCCCOc1nc2ccc(C)cc2c(=O)o1,67 °C
12,CCCC(=O)N[C@H]1C[C@H](C(=O)OC)Nc2cc(Cl)cc(Cl)c21 (relative stereo),205 to 206 °C
13,CCN(CC)CCOc1ccc(NC(=O)C#Cc2ccc(-c3ccccc3)cc2)cc1Cl,105 to 108 °C
14,O=[N+]([O-])c1cc2nc(O)c(O)nc2c2c1CCCC2,> 300 °C
15,COc1ccc2c(=O)c3ccccc3oc2c1,127 to 129 °C
16,N#Cc1c(-c2sc(Cl)c(Cl)c2Cl)[nH]c(C(F)(F)F)c1Br,221 to 224 °C
17,CC1(C)NC(=O)N(CC(CS(=O)(=O)c2ccc(-c3ccc(OC(F)(F)F)cc3)cc2)N(O)C=O)C1=O (stereo unspecified),195 to 197 °C
18,O=C(NCC(F)(F)F)c1ccccc1C(c1ccc(O)cc1)c1ccc(O)cc1,165 to 166 °C
19,COC(=O)CCC(=O)c1ccc(NC(=O)C(C)C)c(N)c1,178 °C
20,O=C1NC(=O)c2c1c(-c1cccc(Cl)c1Cl)cc1[nH]c3ccc(O)cc3c21,233 to 235 °C
21,Cc1cccc(N(c2cccc(C)c2)c2c(N(c3cccc(C)c3)c3cccc(C)c3)c3ccccc3c3ccccc23)c1,223 to 224 °C
22,O=C(Nc1cc2ncc(CN3CCCC3)cc2cc1Cl)c1ccc(-c2cc3ccccc3o2)cc1,209 °C
23,CCOC(=O)/C=C/c1cc(OC)c(OC)c(OC)c1C#N,150 to 152 °C
24,COC=C(C#CCON=C(C)c1cccc(C(F)(F)F)c1)C(=O)OC,57 to 58 °C

row,Structure (SMILES),melting point
1,CC1(C)N=C(c2ccccc2F)c2cc(N)ccc2NC1=O,203 °C
2,COC1=C(Cl)C(Cl)C(C(=O)C2(C3=CCCCC3)C=CC(OC)=C(Cl)C2Cl)(C2=CCCCC2)C=C1 (stereo unspecified),126 to 129 °C
3,COC(=O)C1CNCCN1C(=O)/C=C/c1ccc(Sc2ccc3c(c2)OCCO3)c(C(F)(F)F)c1 (stereo unspecified),70 to 72 °C
4,O=[N+]([O-])c1ccc(OC2CCN(c3ccncc3)CC2)cc1,142 °C
5,CS(=O)c1ccc(-c2nn(Cc3ccc(Cl)cc3Cl)c(=O)cc2-c2ccc(F)cc2)cc1 (stereo unspecified),214 °C
6,NC(=O)c1ncn2c1[C@@H]1CCN1C(=O)c1sccc1-2,> 250 °C
7,Cc1cc(CN2CCN(c3ccc(C(=O)NC4CC4)cc3)CC2)cc2c1OC(C)C(=O)N2 (stereo unspecified),257 to 263 °C
8,CC(C)(C)OC(=O)N[C@H](c1ccc(Cl)cc1)[C@H](c1ccc(Cl)cc1)[N+](=O)[O-],172 to 174 °C
9,Cc1cc(SCC(=O)NCCc2ccccc2)nc(N)n1,114 to 121 °C
10,CCSC1(CCO)C(=O)Nc2ccc(F)cc21 (stereo unspecified),125 °C
11,O=Cc1ccc(Cl)c(-c2ccccc2)c1,84 °C
12,CN(C)CCN(C(=O)c1ccc([N+](=O)[O-])cc1Br)c1ccnc2cc3c(cc12)OCO3,111 to 112 °C
13,COC(=O)C1OC(Oc2ccc(C=O)cc2[N+](=O)[O-])C(OC(C)=O)C(OC(C)=O)C1OC(C)=O (stereo unspecified),180 to 182 °C
14,COc1cc(C=CC(=O)OC2C(O)C3CC(OC(=O)c4cc(OC)c(OC)c(OC)c4)CC2[N+]3(C)[O-])cc(OC)c1OC (stereo unspecified),118 to 121 °C
15,Cc1ccnc(-c2cc(C)cc(C#N)n2)c1,132 °C
16,CS(=O)(=O)c1nc(O)nn1-c1ccccc1,173 to 175 °C
17,N#CCc1cn(Nc2ccncc2)c2ccccc12,80 to 83 °C
18,COc1nc(C)nc(NC(=O)NS(=O)(=O)OCC(Cl)(Cl)Cl)n1,128 °C
19,COC(=O)c1cccc(C(=O)c2ccc(O)c(OC)c2)c1,133 to 134 °C
20,C=C(C)C1CCC2(CO)CCC3(C)C(CCC4C5(C)CCC(O)C(C)(CO)C5CCC43C)C12 (stereo unspecified),256 to 260 °C
21,CN1CCN(c2c(F)cc3c(=O)c(C(=O)O)cn(C4CC4)c3c2C#N)CC1,264 to 265 °C
22,Cc1cc(Cl)ccc1-c1cc(F)cc2c1NC(CN)CO2 (stereo unspecified),90 °C
23,CN(C)S(=O)(=O)c1cc(-c2csc(=Nc3ccc4c(c3)OCCO4)n2C)ccc1Cl,200 to 203 °C
24,Oc1c2c(nn1-c1cc(C(F)(F)F)ccn1)CCc1ccccc1-2,161 to 162 °C

row,Structure (SMILES),melting point
1,O=C(NOCC(O)CO)c1cc(Cl)c(F)c(F)c1Nc1ccc(I)cc1Cl (stereo unspecified),152 to 154 °C
2,COc1cc(COc2cccc(S(=O)(=O)c3ccc(C)nc3Nc3c(C)cc(C)cc3C)c2)cc(OC)c1,120 to 121 °C
3,O=C(c1ccc(-c2cnc3c(c2)N(Cc2cc(F)ccc2F)CCN3)cc1)N1CCC[C@H]1CN1CCCC1,143 to 144 °C
4,C/C(=C\C(C)O)c1ccc(C2CCCCCC2)cc1 (stereo unspecified),64 to 65 °C
5,CC(O)C(=O)N[C@H](C(=O)NC(Cc1ccccc1)C(O)CNCC(O)C(Cc1ccccc1)NC(=O)OC(C)(C)C)C(C)C (stereo partly specified),210 to 214 °C
6,COCCn1c(Oc2ccc(-n3c4ncccc4n4ccnc34)cc2)nc2cccnc21,178 to 182 °C
7,COC(=O)C(=CC=Cc1cc([N+](=O)[O-])ccc1Cl)C(=O)OC,167 to 168 °C
8,Cc1c(Nc2c(C#N)cnc3sc(-c4ccc(OCCN(C)C)cc4)cc23)ccc2[nH]ccc12,182 to 184 °C
9,O=C(/C=C/c1ccc2ccccc2c1)N1CCN(Cc2cccc(CN3CCN(C(=O)/C=C/c4ccc5ccccc5c4)CC3)n2)CC1,200 to 202 °C
10,O=C(NCc1ccccc1)c1cc2c(=O)n(Cc3ccccc3)c(=O)[nH]c2s1,> 255 °C
11,CNC(=O)c1ccccc1Nc1nc(Nc2cc3c(cc2OC)N(C)C(=O)OCC3)ncc1Br,227 to 228 °C
12,CCOC(=O)/C=C/c1ccc(OC)c(F)c1,39 to 41 °C
13,COC(=O)c1cscc1NC(=O)COc1ccc(-c2ccccc2)cc1,132 to 135 °C
14,COc1cc(F)ccc1Oc1c(Cl)nc(-c2ncccn2)nc1NS(=O)(=O)c1ccc(C(C)(C)C)cc1,225 to 227 °C
15,CCCc1nc2c(N)nc3ccccc3c2n1CCCCNS(=O)(=O)c1ccccc1,159 to 161 °C
16,C#CCCCC(=O)c1cc(C)c(O)c(C(C)(C)C)c1,63 to 64 °C
17,CCOC(=O)Cc1cnc(NC(C)C)nc1Cl,67 to 71 °C
18,CC(C)n1nc(-c2cnc(N)nc2-c2ccccc2F)ccc1=O,239 to 240 °C
19,NC(=O)Cn1cc2c(c1)-c1ccc(Cl)cc1C(c1ccccc1)=NC2,236 to 237 °C
20,COc1ccc(C(=O)c2c(N)sc3c2CCCN3C(=O)OCc2ccccc2)cc1OC,177 to 178 °C
21,CC(O)(CCO)c1ccc(-c2ccc(F)cc2F)cc1 (stereo unspecified),82 to 84 °C
22,COC(=O)c1ccccc1Oc1ccc(Br)cc1[N+](=O)[O-],82 to 83 °C
23,COC(=O)ON=C1C(=O)c2ccccc2-c2ccccc21,142 to 143 °C
24,O=C(O)c1ccc(OCC2COC(=O)N2c2ccc(Cl)cc2)cc1 (stereo unspecified),219 to 221 °C

row,Structure (SMILES),melting point
1,Cc1cc(=O)n(-c2cccc(Cl)c2)c2[nH]n(-c3ccccc3)c(=O)c12,278 to 282 °C
2,CCC(C)NC(=O)NCC=CCOc1cc(CN2CCCCC2)ccn1 (stereo unspecified),72 to 74 °C
3,CNC(=S)n1nc(Cc2ccccc2)nc1N,173 to 175 °C
4,CCOC(=O)C(=O)Nc1ccc2ccccc2c1[N+](=O)[O-],139 to 140 °C
5,Cc1nc(Cc2ccc([N+](=O)[O-])cc2)cs1,118 to 119 °C
6,CCC1CC(=O)CC23CCN(C#N)C(Cc4ccc(OC)cc42)C13 (stereo unspecified),141 to 145 °C
7,CCCCCOC(=O)Oc1ccc(-c2ccc(C#N)cc2)cc1,50.1 to 51 °C
8,CS(=O)(=O)Nc1cccc(S(=O)(=O)N2CCC(Nc3nc(Nc4cccc(C(F)(F)F)c4)nc(OCC(F)(F)F)n3)CC2)c1,249 to 251 °C
9,CN(C)C(=O)c1cncc([N+](=O)[O-])c1,65 °C
10,COc1cc(OC)cc(-c2ncoc2-c2cc(N)c(OC)cc2O)c1,122 to 123 °C
11,CCS(=O)(=O)CC(=O)c1cc(C(C)(C)C)c(O)c(C(C)(C)C)c1,120 °C
12,Cn1c(-c2ccc(N3CCOCC3)cc2)cnc1[C@H](Cc1ccccn1)N(C=O)c1nc2cc(Cl)ccc2s1,96 to 99 °C
13,CCCN(CCC)C(=O)n1cc(C)c2c1CC1(c3cccc(O)c3)CCN(CC)CC1C2 (stereo unspecified),151 to 153 °C
14,O=C(O)Cc1ccc(Oc2ccccc2CC(=O)O)cc1,150 to 152 °C
15,COC(=O)COc1cc2c(c3c1c(C(=O)C(N)=O)c(C)n3Cc1ccccc1Br)CCC2,200 to 207 °C
16,Cc1on(C(=O)N(Cc2ccccc2)c2ccccc2)c(=O)c1Cl,118 to 119 °C
17,COc1ccc(C(=O)c2c(-c3ccc(OC)cc3)oc3cc(OC)ccc23)cc1,106 to 109 °C
18,Cc1ccc(S(=O)(=O)N[C@@H](C)C(=O)Oc2c[nH]c(-c3ccccc3)c2)cc1,154 to 155 °C
19,O=C(O)/C=C/c1ccc(C(=O)c2c(-c3ccc(O)cc3)sc3cc(O)ccc23)cc1,155 to 160 °C
20,Cc1csc2ccc3[nH]c4c(c3c12)CN(C(=O)OCCCN(C)C)CC4,184 °C
21,COc1ccc(-c2ccc3[nH]c4ncc(Cl)cc4c3c2)cc1,> 220 °C
22,COc1ccc(-c2cn3ccc(C)cc3n2)cc1OC,163 °C
23,CN(Cc1ccncc1)c1ccc([N+](=O)[O-])c2c(C#N)cccc12,153 to 156 °C
24,Cc1cc(NC(=O)Cc2cccs2)nc(C)c1Br,192 °C
